Here are results for ten compounds from PMC8587785, “A New Class of Uracil–DNA Glycosylase Inhibitors Active against Human and Vaccinia Virus Enzyme” (Molecules, 2021).

Entries after “also recorded” stand apart in the source; their conditions may differ. Where two headings read alike, the source gives them in different places.

The target of assay [1] is T1, hUNG (Homo sapiens, UniProt P13051).
T1 construct: truncated catalytically active human uracil–DNA glycosylase (hUNG ΔN84); His6 (N); linker with thrombin cleavage site (pET-15b) (N); made in house; host or cells: E. coli BL21(DE3), pET-15b
Put plainly: Uracil–DNA glycosylase assay, biochemical screening against hUNG (cleavage of 32P-labeled ssDNA 20-mer with dU). The settings on record: for hUNG inhibition, dose response: inhibitors at 10, 100 and 1000 μM; for IC50: conditions used for screening: 50 nM substrate, 20 pM enzyme, 10 min, 37 °C. As for the experimental part: As hUNG excises Ura from single- and double-stranded DNA with similar efficiency, we have used the cleavage of a 20-mer single-stranded DNA oligonucleotide containing a dU residue in position 8 (Section 4.1) to assay hUNG activity in the presence of inhibitors. Twenty-three identified compounds were tested at 10, 100, and 1000 μM (Figure 2a). […] However, even the best inhibitor, 4B, had IC50 between 100 and 1000 μM under the conditions used for screening.
Figure 2 Biochemical screening of the inhibitors identified by molecular docking. (a) hUNG activity in the presence of the inhibitors at 10 μM (black bars), 100 μM (light gray bars), or 1000 μM (dark gray bars). The activity is normalized for that in the absence of the inhibitor. Means and SD of three independent experiments are shown; (b) Structures of the compounds 2D, 3A, 3B, 4B, 4E, 4F, and 4G.
The identified compounds were purchased from Vitas-M Laboratory (Vitas-M Laboratory, Ltd., Hong Kong, China). The reaction mixture (10 μL) included 25 mM sodium phosphate (pH 7.5), 1 mM dithiothreitol, 1 mM Na-EDTA, 50 nM ^32P-labeled substrate, 20 pM enzyme, and the inhibitors at 10, 100, and 1000 μM. The reaction was carried out for 10 min at 37 °C, terminated by adding NaOH to 100 mM and heating for 2 min at 95 °C, and neutralized by an equimolar amount of HCl. The mixture was supplemented with 5 μL of formamide dye (80% formamide, 20 mM Na-EDTA, 0.1% xylene cyanol, 0.1% bromophenol blue), and the reaction products were separated by gel electrophoresis in 20% polyacrylamide/7.2 M urea. The gels were visualized and quantified by phosphorimaging using the Typhoon FLA 9500 system (GE Healthcare, Chicago, IL, USA).

Another assay concerns E. coli UNG. The settings on record: cited from earlier work.
The subject of a further assay is HEK 293FT cells. Put plainly: Cell toxicity assay (MTT). The settings on record: for EC50: Homo sapiens, HEK293FT, 72 h, read-out: effective concentration (toxicity). The assay is classed as cell-based, human. The source says: To assess the toxicity of UNG inhibitors for human cells, we have treated HEK293 cell line with the compounds 4B and 4F as the best inhibitors (Table 1). […] Since Ura preferentially accumulates in DNA from a dUTP pool, we have next tested the toxicity of these UNG inhibitors in the presence of MTX, which is an antimetabolite drug that inhibits dihydrofolate reductase, reduces the availability of tetrahydrofolate, and thus suppresses the conversion of […].
Figure 4 Cytotoxicity of UNG inhibitors. (a) Survival of HEK 293FT cells in the presence of the UNG inhibitors 4B and 4F (0.8–500 μM); (b) survival of HEK 293FT cells in the presence of MTX alone (0.02–10 μM) or 100 μM 4B plus MTX (0.1–10 μM); (c) survival of HEK 293FT cells in the presence of the UNG inhibitors 4B and 4F (0.8–500 μM) plus 0.1 μM MTX. In Panel C, the survival in the presence of 0.1 μM MTX alone is taken for 100%. Mean ± s. e. m. is shown (n = 3).
Human embryonic kidney cells (HEK 293FT) were from Thermo Fisher Scientific (Waltham, MA, USA; Cat. #R70007). The laboratory stock was regularly checked for the absence of mycoplasma contamination by PCR. Cells were grown in T25 cm^2 flasks in the complete medium (Dulbecco’s modified Eagle’s medium supplemented with 10% fetal bovine serum, 1 mM sodium pyruvate, 2 mM L-glutamine, and 1% penicillin–streptomycin–amphotericin B) as adherent monolayer cultures. The cultures were maintained at 37 °C in humidified atmosphere with 5% CO2. Cytotoxicity was determined by the colorimetric MTT (3-(4,5-dimethyl-2-thiazolyl)-2,5-diphenyl-2H-tetrazolium bromide) assay. The cells were harvested by trypsinization, seeded in the complete medium (100 μL per well) into 96-well plates at the density of 1.4×10^4 cells per well, and incubated for 24 h to settle and resume proliferation. MTX was dissolved in 1 M NaOH to 22 mM. […] After 15 min at room temperature to solubilize the formed formazan, A570 and A620 were measured with a Multiskan EX microplate reader (Thermo Fisher Scientific, Waltham, MA, USA). […]

For the next assay, the system named is 947 human cell lines. The conditions noted are these: read-out: median EC50; cited from earlier work.
Assay [2] deals with T2, vaccinia virus UNG (vvUNG, D4 protein) (Vaccinia virus, UniProt P20536).
T2 construct: made in house
The class given is biochemical. The settings on record: at 100 μM.

For assay [3], the target named is T1, hUNG. Briefly: Inhibition mechanism determination, steady-state kinetics of substrate cleavage by hUNG. The class given is biochemical. The settings on record: for θ rel (Akaike’s relative likelihood of the model): best model’s likelihood taken for 1; for Vmax: fit in the presence of the inhibitor; for mode of inhibition: fit to competitive, uncompetitive and mixed models. As for the experimental part: KM and Vmax parameters of the Michaelis–Menten scheme were determined at different inhibitor concentrations, and the results were analyzed by fitting to competitive, uncompetitive, and mixed inhibition models (Figure 3, Table 1). Akaike’s information criterion was used to compare the quality of fit under the models. […] The kinetic values reported for ssDNA cleavage by hUNG in the literature vary widely (0.22–13.8 μM for KM, 647–1060 min^−1 for kcat) yet generally agree with our data.
The reactions were performed as described above except that the substrate concentrations were 0.1, 0.3, 0.5, 0.7, 1, 3, 5, 7, and 10 μM, and the inhibitors concentrations were 0, 100, 300, 500, and 1000 μM. […] To determine the type of inhibition and calculate Ki, the data were fit to the competitive, uncompetitive, and mixed inhibition models using an R script.

Assay [4] has as its target T1, hUNG. The settings on record: open (not DNA-bound) conformation; cited from earlier work.
The mark [5] stands for this setting: competitive model, read-out: Ki.
The mark [6] stands for this setting: uncompetitive model, read-out: Ki.

For the compound `Cc1ccc(C#N)c(SCc2cc(=O)[nH]c(=O)[nH]2)n1` [4E], the “hUNG inhibition, dose response” value at hUNG [1] is listed as “progressively lower substrate cleavage with the increasing inhibitor concentration”.

With `CNC(C)C1CCC(N)C(OC2C(N)CC(N)C(OC3OCC(C)(O)C(NC)C3O)C2O)O1` (centres unmarked) [gentamicin], in the assay on E. coli UNG, the IC50 (in general, the midpoint of a concentration-inhibition curve) was about 1000 µM.

`CN(Cc1cnc2nc(N)nc(N)c2n1)c1ccc(C(=O)N[C@@H](CCC(=O)O)C(=O)O)cc1` [MTX, methotrexate, reference compound]: in the assay with HEK 293FT cells (0.1 μM MTX without the inhibitors), the “reduction in the cell viability” value is 20–25%. The EC50 with 947 human cell lines is 0.595 µM.

For `COc1ccc(C=C2C(=O)NC(=O)NC2=O)c(OC)c1` [4B], the values for the IC50 entry at hUNG [1] and on hUNG [1] (read-out: IC50) were “submillimolar range” and 100 to 1000 µM, respectively. The “hUNG inhibition, dose response” value at hUNG [1] is recorded as “progressively lower substrate cleavage with the increasing inhibitor concentration; also recorded: more pronounced dose response”. The EC50 in the assay on HEK 293FT cells turned out to be 69 ± 1 µM. Moreover, the “suppression of vvUNG activity” value in assay [2] is “≈ 50%”. In addition, the “θ rel (Akaike’s relative likelihood of the model)” value is recorded as “best model” at hUNG [3] (competitive model) and 2.53 × 10^−5 on hUNG [3] (uncompetitive model). Besides, the Vmax (commonly the top rate of the reaction or transport when substrate is in excess) at hUNG [3] (competitive model) came to 0.019 ± 0.001 µM/min; on hUNG [3] (uncompetitive model), 0.024 ± 0.003 µM/min. For the same compound, the Ki (as a rule, a dissociation constant, usually derived from enzyme kinetics or from competition with a known ligand) worked out at 140 ± 40 µM on hUNG [3] (setting [5]) and 550 ± 140 µM on hUNG [3] (setting [6]). Moreover, the mode of inhibition entry on hUNG [3] was “clearly better described by the competitive inhibition model”.

For `CN(C)c1ccc(C=C2C(=O)NC(=O)NC2=O)cc1` [3A], the “hUNG inhibition, dose response” value on hUNG [1] was “progressively lower substrate cleavage with the increasing inhibitor concentration; also recorded: weak dose response”. Also, the “suppression of vvUNG activity” value in assay [2] is reported as “≈ 50%”. The Ki at hUNG [3] (Ki, competitive model) was determined as 530 ± 270 µM; at hUNG [3] (Ki, uncompetitive model), 1300 ± 500 µM. Besides, the entries for the “θ rel (Akaike’s relative likelihood of the model)” value at hUNG [3] (competitive model) and at hUNG [3] (uncompetitive model) were 0.655 and “best model”, respectively. The Vmax on hUNG [3] (competitive model) was determined as 0.029 ± 0.003 µM/min; at hUNG [3] (uncompetitive model) it was 0.034 ± 0.004 µM/min. For the same compound, the mode of inhibition result on hUNG [3] was “the uncompetitive model was marginally better”.

As to `CC(Oc1ccc(C=C2C(=O)NC(=O)NC2=O)cc1)C(=O)O` (centres unmarked) [4G], the “hUNG inhibition, dose response” value on hUNG [1] is “progressively lower substrate cleavage with the increasing inhibitor concentration; also recorded: more pronounced dose response”. In addition, the Ki was 3300 ± 2300 µM on hUNG [3] (Ki, competitive model) and over 10000 µM on hUNG [3] (Ki, uncompetitive model). The entries for the “θ rel (Akaike’s relative likelihood of the model)” value at hUNG [3] (competitive model) and on hUNG [3] (uncompetitive model) were “best model” and 0.312, respectively. Further, the Vmax at hUNG [3] (competitive model) stood at 0.042 ± 0.002 µM/min; on hUNG [3] (uncompetitive model), 0.043 ± 0.003 µM/min. Also, the mode of inhibition result on hUNG [3] is listed as “clearly better described by the competitive inhibition model”.

Take `O=C1NC(=O)C(=Cc2ccco2)C(=O)N1` [3B]: the “suppression of vvUNG activity” value in assay [2] was “≈ 50%”.

As to `COc1cc(C=C2C(=O)NC(=O)NC2=O)cc(Cl)c1OC` [4F], on hUNG [1], the IC50 result is on record as “submillimolar range” and the “hUNG inhibition, dose response” value was “progressively lower substrate cleavage with the increasing inhibitor concentration; also recorded: more pronounced dose response”. Moreover, in the assay with HEK 293FT cells, the EC50 stood at 77 ± 1 µM. Also, on hUNG [3] (competitive model), the “θ rel (Akaike’s relative likelihood of the model)” value is recorded as 0.8 and the maximal velocity (Vmax) came out at 0.053 ± 0.014 µM/min. Moreover, the Ki on hUNG [3] (setting [5]) is 200 ± 130 µM. For the same compound, the mode of inhibition entry at hUNG [3] was “the uncompetitive model was marginally better”. Besides, at hUNG [3] (uncompetitive model), the “θ rel (Akaike’s relative likelihood of the model)” value is “best model” and the Vmax was found to be 0.075 ± 0.028 µM/min. At hUNG [3] (setting [6]), the Ki was determined as 250 ± 140 µM.

Take `O=C(O)C1=CC(=C(c2ccc(O)c(C(=O)O)c2)c2ccc(O)c(C(=O)O)c2)C=CC1=O` [aurintricarboxylic acid]: the affinity result on hUNG [4] is reported as “submicromolar affinity”.

In the case of `Cc1ccc(C=C2C(=O)NC(=O)NC2=O)o1` [2D], at hUNG [1], the “hUNG inhibition, dose response” value was “progressively lower substrate cleavage with the increasing inhibitor concentration”. Also, the “suppression of vvUNG activity” value in assay [2] is “≈ 50%”.
